pIC50: −log10 of the molar value.
How the values were obtained:
Rat Paw Edema = Rat Paw Edema Assay; type: in vivo; conditions: male Sprague-Dawley rats, po 1 hr before carrageenan, paw volume increase 3 hr later
Protocol: Rat Paw Edema Assay-Protocol
Male Sprague-Dawley rats (150-200 g) were fasted overnight and were given po either vehicle (1% methocel or 5% Tween 80) or a test compound. One hr later, a line was drawn using a permanent marker at the level above the ankle in one hind paw to define the area of the paw to be monitored. The paw volume (V0) was measured using a plethysmometer (Ugo-Basile, Italy) based on the principle of water displacement. The animals were then injected subplantarly with […] of 1% carrageenan solution in saline (FMC Corp, Maine) into the paw using an insulin syringe with a 25-gauge needle (i.e. […] carrageenan per paw). Three hr later, the paw volume (V3) was measured and the increases in paw volume (V3 -V0) were calculated. The animals were sacrificed by CO2 aphyxiation and the absence or presence of stomach lesions scored. Data were compared with the vehicle-control values and percent inhibition calculated. Since a maximum of 60-70% inhibition (paw edema) was obtained with standard NSAIDs, ED50 values were used for comparison. All treatment groups were coded to eliminate observer bias.

COX-2 = molecular target: T1, COX-2 (Homo sapiens, UniProt P35354); assay: Human Whole Blood (HWB) Assay: COX-2 (LPS-induced PGE2 production); type: cell-based; conditions: LPS-induced PGE2, 24 hours at 37° C.
T1 construct: incubation of human whole blood with LPS (lipopolysaccharide), which induces COX-2; from tissue; host or cells: fresh heparinized human whole blood from male and female volunteers, LPS-stimulated for 24 hours
T1 sequence (P35354 18-604): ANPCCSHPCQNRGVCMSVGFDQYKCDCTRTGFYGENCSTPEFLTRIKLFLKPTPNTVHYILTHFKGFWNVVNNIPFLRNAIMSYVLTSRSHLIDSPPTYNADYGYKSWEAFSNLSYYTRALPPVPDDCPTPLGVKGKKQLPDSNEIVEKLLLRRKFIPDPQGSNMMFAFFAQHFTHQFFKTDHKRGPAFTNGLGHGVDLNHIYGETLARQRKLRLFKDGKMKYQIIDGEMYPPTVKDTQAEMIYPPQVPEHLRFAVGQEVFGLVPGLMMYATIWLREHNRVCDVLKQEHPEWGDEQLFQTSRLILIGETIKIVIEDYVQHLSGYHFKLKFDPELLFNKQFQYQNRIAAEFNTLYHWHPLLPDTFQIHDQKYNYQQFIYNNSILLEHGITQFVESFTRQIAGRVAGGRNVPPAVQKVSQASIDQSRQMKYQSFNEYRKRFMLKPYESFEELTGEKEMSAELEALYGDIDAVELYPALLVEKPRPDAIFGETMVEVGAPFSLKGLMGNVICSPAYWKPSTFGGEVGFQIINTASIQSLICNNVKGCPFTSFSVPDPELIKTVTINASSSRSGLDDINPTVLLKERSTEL
Protocol: Human Whole Blood (HWB) Assay Human whole blood provides a protein and cell-rich milieu appropriate for the study of biochemical efficacy of anti-inflammatory compounds such as selective COX-2 inhibitors. […] This is consistent with the observation that COX-2 inhibitors have no effect on PGE2 production in normal blood. These inhibitors are active only after incubation of human whole blood with LPS (lipopolysaccharide), which induces COX-2. This assay can be used to evaluate the inhibitory effect of selective COX-2 inhibitors on PGE2 production. As well, platelets in whole blood contain a large amount of the COX-1 enzyme. Immediately following blood clotting, platelets are activated through a thrombin-mediated mechanism. This reaction results in the production of thromboxane B2 (T×B2) via activation of COX-1. Thus, the effect of test compounds on T×B2 levels levels following blood clotting can be examined and used as an index for COX-1 activity. Therefore, the degree of selectivity by the test compound can be determined by measuring the levels of PGE2 after LPS induction (COX-2) and T×B2 following blood clotting (COX-1) in the same assay. A. COX-2 (LPS-induced PGE2 production) Fresh blood was collected in heparinized tubes by venipuncture from both male and female volunteers. The subjects had no apparent inflammatory conditions and had not taken any NSAIDs for at least 7 days prior to blood collection. Plasma was immediately obtained from a 2 mL blood aliquot to use as blank (basal levels of PGE2). The remaining blood was incubated with LPS ([…] final concentration, Sigma Chem, #L-2630 from E. coli; diluted in 0.1% BSA-Phosphate buffered saline) for […]. […] At the end of the incubation, the blood was centrifuged at 12,000×g for 5 minutes to obtain plasma. A […] aliquot of plasma was mixed with […] of methanol for protein precipitation. The supernatant was obtained and was assayed for PGE2 using a radioimmunoassay kit (Amersham, RPA#530) after conversion of PGE2 to its methyl oximate derivative according to the manufacturer's procedure. Compounds of the present invention are inhibitors of cyclooxygenase-2 and are thereby useful in the treatment of cyclooxygenase-2 mediated diseases as enumerated above. The activities of the compounds against cyclooxygenase may be seen in the representative results shown below. In the assay, inhibition is determined by measuring the amount of prostaglandin E2 (PGE2) synthesized in the presence of arachidonic acid, cyclooxygenase-1 or cyclooxygenase-2 and a putative inhibitor. The IC50 values represent the concentration of putative inhibitor required to return PGE2 synthesis to 50% of that obtained as compared to the uninhibited control.

COX-1 = molecular target: T2, COX-1 (Homo sapiens, UniProt P23219); assay: Human Whole Blood (HWB) Assay: COX-1 (Clotting-induced TxB2 production); type: cell-based; conditions: clotting-induced TxB2, 1 hour at 37° C.
T2 construct: platelets in whole blood contain a large amount of the COX-1 enzyme; from tissue; host or cells: fresh human whole blood without anticoagulant, allowed to clot (platelets)
Protocol: Human Whole Blood (HWB) Assay
Human whole blood provides a protein and cell-rich milieu appropriate for the study of biochemical efficacy of anti-inflammatory compounds such as selective COX-2 inhibitors. […] This is consistent with the observation that COX-2 inhibitors have no effect on PGE2 production in normal blood. These inhibitors are active only after incubation of human whole blood with LPS (lipopolysaccharide), which induces COX-2. This assay can be used to evaluate the inhibitory effect of selective COX-2 inhibitors on PGE2 production. As well, platelets in whole blood contain a large amount of the COX-1 enzyme. Immediately following blood clotting, platelets are activated through a thrombin-mediated mechanism. This reaction results in the production of thromboxane B2 (T×B2) via activation of COX-1. […] Therefore, the degree of selectivity by the test compound can be determined by measuring the levels of PGE2 after LPS induction (COX-2) and T×B2 following blood clotting (COX-1) in the same assay. […]
Compounds of the present invention are inhibitors of cyclooxygenase-2 and are thereby useful in the treatment of cyclooxygenase-2 mediated diseases as enumerated above. […] In the assay, inhibition is determined by measuring the amount of prostaglandin E2 (PGE2) synthesized in the presence of arachidonic acid, cyclooxygenase-1 or cyclooxygenase-2 and a putative inhibitor. […]

T2 sequence (P23219 24-599): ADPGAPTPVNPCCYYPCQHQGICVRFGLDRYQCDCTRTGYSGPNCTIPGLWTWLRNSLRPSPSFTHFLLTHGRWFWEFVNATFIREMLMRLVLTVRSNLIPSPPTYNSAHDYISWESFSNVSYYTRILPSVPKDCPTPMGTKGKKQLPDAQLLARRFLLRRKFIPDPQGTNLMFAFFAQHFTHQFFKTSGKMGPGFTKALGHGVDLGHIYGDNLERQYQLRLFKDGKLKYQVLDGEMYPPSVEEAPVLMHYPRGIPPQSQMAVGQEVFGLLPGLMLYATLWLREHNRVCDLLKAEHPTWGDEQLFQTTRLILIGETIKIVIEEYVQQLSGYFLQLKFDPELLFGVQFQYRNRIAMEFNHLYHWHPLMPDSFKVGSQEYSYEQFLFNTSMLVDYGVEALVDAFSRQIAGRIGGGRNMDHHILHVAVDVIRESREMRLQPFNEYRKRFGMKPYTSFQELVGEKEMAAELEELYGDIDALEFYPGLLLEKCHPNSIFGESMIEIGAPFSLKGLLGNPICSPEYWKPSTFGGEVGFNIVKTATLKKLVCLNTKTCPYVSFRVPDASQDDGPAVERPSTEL

Compound	pIC50 (COX-2)	pIC50 (COX-1)	ED50 (Rat Paw Edema)
CC1(O)OC(=O)C(c2ccccc2)=C1c1ccc(S(C)(=O)=O)cc1 (centres unmarked) [Example 4, 5-Hydroxy-5-methyl-4-(4-(methylsulfonyl)phenyl)-3-phenyl-2-(5H)-furanone]	5.90	–	1.53 mg/kg
CC1(O)OC(=O)C(c2ccc(F)cc2)=C1c1ccc(S(C)(=O)=O)cc1 (centres unmarked) [Example 5, 3-(4-Fluorophenyl)-5-hydroxy-5-methyl-4-(4-(methylsulfonyl)phenyl)-2-(5H)-furanone]	5.85	–	1.84 mg/kg
COC1(C)OC(=O)C(c2ccc(F)cc2)=C1c1ccc(S(C)(=O)=O)cc1 (centres unmarked) [Example 15, 3-(4-Fluorophenyl)-5-methoxy-5-methyl-4-(4-(methylsulfonyl)phenyl)-2-(5H)-furanone]	> 6.43	< 4.52	2.8 mg/kg

Second part, led by results:

pIC50 (COX-2)	pIC50 (COX-1)	Compound	ED50 (Rat Paw Edema)
5.62	–	CC1(O)OC(=O)C(c2ccc(Cl)cc2)=C1c1ccc(S(C)(=O)=O)cc1 (centres unmarked) [Example 6, 3-(4-Chlorophenyl)-5-hydroxy-5-methyl-4-(4-(methylsulfonyl)phenyl)-2-(5H)-furanone]	1.41 mg/kg
> 6.43	–	COC1(C)OC(=O)C(c2ccccc2)=C1c1ccc(S(C)(=O)=O)cc1 (centres unmarked) [Example 10, 5-Methoxy-5-methyl-4-(4-(methylsulfonyl)phenyl)-3-phenyl-2-(5H)-furanone]	1.94 mg/kg
